US7192906B2, “Substituted pyrazole derivatives, production process thereof, and herbicide compositions containing the derivatives” (SDS Biotech K.K., priority 2001, dated 2007)

Key:
Assay type in all cases: in vivo
Setaria viridis [1] = assay: Test Example 1 upland field foliage treatment; conditions: Table 4, upland field foliage treatment, index 0-5
Outline: (§1)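 Seeds sown in upland soil in pots and covered with about 1 cm soil; on day 14 after sowing, diluted wettable powder applied uniformly to leaves at 1 kg active ingredient per hectare. Weed control or crop phytotoxicity scored visually 21 days after application on a 0–5 scale (5 = ≥90%, 0 = <10%).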

Chenopodium album [2] = assay: Test Example 1 upland field foliage treatment; conditions: Table 4, upland field foliage treatment, index 0-5
Outline: as §1

Digitaria adscendens [3] = assay: Test Example 1 upland field foliage treatment; conditions: Table 4, upland field foliage treatment, index 0-5
Outline: as §1

Stellaria media [4] = assay: Test Example 1 upland field foliage treatment; conditions: Table 4, upland field foliage treatment, index 0-5
Outline: as §1

soybean (Glycine max) [5] = assay: Test Example 1 upland field foliage treatment, crop phytotoxicity; conditions: Table 4, upland field foliage treatment, index 0-5
Outline: as §1

[6] = test system: wheat (Triticum aestivum); assay: as above; conditions: Table 4, upland field foliage treatment, index 0-5
Outline: as §1

soybean (Glycine max) [7] = assay: Test Example 2 upland soil treatment, crop phytotoxicity; conditions: Table 5, upland soil treatment, index 0-5
Outline: (§2)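 Score 0–5 read at day 21 (5 = ≥90% effect or phytotoxicity, 0 = <10%). Wettable powder diluted in water to 1 kg a.i./ha, applied uniformly to upland soil one day after sowing; seeds covered with ~1 cm soil.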

[8] = test system: wheat (Triticum aestivum); assay: as above; conditions: Table 5, upland soil treatment, index 0-5
Outline: as §2

Setaria viridis [9] = assay: Test Example 2 upland soil treatment; conditions: Table 5, upland soil treatment, index 0-5
Outline: as §2

Chenopodium album [10] = assay: Test Example 2 upland soil treatment; conditions: Table 5, upland soil treatment, index 0-5
Outline: as §2

Digitaria adscendens [11] = assay: Test Example 2 upland soil treatment; conditions: Table 5, upland soil treatment, index 0-5
Outline: as §2

Stellaria media [12] = assay: Test Example 2 upland soil treatment; conditions: Table 5, upland soil treatment, index 0-5
Outline: as §2

Rice (Oryza sativa) = assay: Test Example 3 paddy field treatment, crop phytotoxicity; conditions: Table 6, paddy field treatment, transplanted rice, active ingredient 1 kg per hectare, 21st day after dropping, index 0-5
Outline: (§3)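 Weed seeds sown in puddled paddy soil under 4 cm water, with two-leaf Koshihikari rice transplanted; 10 days later a wettable powder was applied to the water surface at 1 kg active ingredient/ha. Scored 21 days after application on a 0–5 scale (0 = <10%, 5 = ≥90% herbicidal effect or phytotoxicity).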

Ammannia multiflora = assay: Test Example 3 paddy field treatment; conditions: Table 6, paddy field treatment, active ingredient 1 kg per hectare, 21st day after dropping, index 0-5
Outline: as §3

Scirpus juncoides = assay: Test Example 3 paddy field treatment; conditions: Table 6, paddy field treatment, active ingredient 1 kg per hectare, 21st day after dropping, index 0-5
Outline: as §3

Monochoria vaginalis = assay: Test Example 3 paddy field treatment; conditions: Table 6, paddy field treatment, active ingredient 1 kg per hectare, 21st day after dropping, index 0-5
Outline: as §3

Echinochloa crusgalli = assay: Test Example 3 paddy field treatment; conditions: Table 6, paddy field treatment, active ingredient 1 kg per hectare, 21st day after dropping, index 0-5
Outline: as §3

SMILES: CON=C(Cn1cc(C)c(-c2ccccc2)n1)C(=O)N1CCOCC1 [Compound 120]
- Herbicidal activity SV: Setaria viridis (Setaria viridis [1]): 4 (herbicidal effect of not less than 70% and less than 90%, or phytotoxicity of 70% or more and less than 90%)
- Herbicidal activity CA: Chenopodium album (Chenopodium album [2]): 5 (herbicidal effect of not less than 90%, or phytotoxicity of 90% or more)
- Herbicidal activity DA: Digitaria adscendens (Digitaria adscendens [3]): 4 (herbicidal effect of not less than 70% and less than 90%, or phytotoxicity of 70% or more and less than 90%)
- Herbicidal activity SM: Stellaria media (Stellaria media [4]): 4 (herbicidal effect of not less than 70% and less than 90%, or phytotoxicity of 70% or more and less than 90%)
- Herbicidal activity (phytotoxicity) GM: Soybean (Glycine max) (soybean (Glycine max) [5]): 0 (herbicidal effect of not less than 0% and less than 10%, or phytotoxicity of 0% or more and less than 10%)
- Herbicidal activity (phytotoxicity) TA: Wheat (Triticum aestivum) [6]: 0 (herbicidal effect of not less than 0% and less than 10%, or phytotoxicity of 0% or more and less than 10%)
- Herbicidal activity (phytotoxicity) GM: Soybean (Glycine max) (soybean (Glycine max) [7]): 0 (herbicidal effect of not less than 0% and less than 10%, or phytotoxicity of 0% or more and less than 10%)
- Herbicidal activity (phytotoxicity) TA: Wheat (Triticum aestivum) [8]: 0 (herbicidal effect of not less than 0% and less than 10%, or phytotoxicity of 0% or more and less than 10%)
- Herbicidal activity SV: Setaria viridis (Setaria viridis [9]): 3 (herbicidal effect of not less than 50% and less than 70%, or phytotoxicity of 50% or more and less than 70%)
- Herbicidal activity CA: Chenopodium album (Chenopodium album [10]): 4 (herbicidal effect of not less than 70% and less than 90%, or phytotoxicity of 70% or more and less than 90%)
- Herbicidal activity DA: Digitaria adscendens (Digitaria adscendens [11]): 4 (herbicidal effect of not less than 70% and less than 90%, or phytotoxicity of 70% or more and less than 90%)
- Herbicidal activity SM: Stellaria media (Stellaria media [12]): 4 (herbicidal effect of not less than 70% and less than 90%, or phytotoxicity of 70% or more and less than 90%)
- Herbicidal activity (phytotoxicity) OS (Rice (Oryza sativa)): 0 (herbicidal effect of not less than 0% and less than 10%, or phytotoxicity of 0% or more and less than 10%)
- Herbicidal activity AM (Ammannia multiflora): 4 (herbicidal effect of not less than 70% and less than 90%, or phytotoxicity of 70% or more and less than 90%)
- Herbicidal activity SJ (Scirpus juncoides): 3 (herbicidal effect of not less than 50% and less than 70%, or phytotoxicity of 50% or more and less than 70%)
- Herbicidal activity MV (Monochoria vaginalis): 4 (herbicidal effect of not less than 70% and less than 90%, or phytotoxicity of 70% or more and less than 90%)
- Herbicidal activity EC (Echinochloa crusgalli): 3 (herbicidal effect of not less than 50% and less than 70%, or phytotoxicity of 50% or more and less than 70%)

SMILES: CON=C(Cn1cc(C)c(-c2ccccc2)n1)C(=O)N1CCSCC1 [Compound 122]
- Herbicidal activity SV: Setaria viridis (Setaria viridis [1]): 4 (herbicidal effect of not less than 70% and less than 90%, or phytotoxicity of 70% or more and less than 90%)
- Herbicidal activity CA: Chenopodium album (Chenopodium album [2]): 4 (herbicidal effect of not less than 70% and less than 90%, or phytotoxicity of 70% or more and less than 90%)
- Herbicidal activity DA: Digitaria adscendens (Digitaria adscendens [3]): 4 (herbicidal effect of not less than 70% and less than 90%, or phytotoxicity of 70% or more and less than 90%)
- Herbicidal activity SM: Stellaria media (Stellaria media [4]): 4 (herbicidal effect of not less than 70% and less than 90%, or phytotoxicity of 70% or more and less than 90%)
- Herbicidal activity (phytotoxicity) GM: Soybean (Glycine max) (soybean (Glycine max) [5]): 0 (herbicidal effect of not less than 0% and less than 10%, or phytotoxicity of 0% or more and less than 10%)
- Herbicidal activity (phytotoxicity) TA: Wheat (Triticum aestivum) [6]: 0 (herbicidal effect of not less than 0% and less than 10%, or phytotoxicity of 0% or more and less than 10%)
- Herbicidal activity (phytotoxicity) GM: Soybean (Glycine max) (soybean (Glycine max) [7]): 0 (herbicidal effect of not less than 0% and less than 10%, or phytotoxicity of 0% or more and less than 10%)
- Herbicidal activity (phytotoxicity) TA: Wheat (Triticum aestivum) [8]: 0 (herbicidal effect of not less than 0% and less than 10%, or phytotoxicity of 0% or more and less than 10%)
- Herbicidal activity SV: Setaria viridis (Setaria viridis [9]): 3 (herbicidal effect of not less than 50% and less than 70%, or phytotoxicity of 50% or more and less than 70%)
- Herbicidal activity CA: Chenopodium album (Chenopodium album [10]): 4 (herbicidal effect of not less than 70% and less than 90%, or phytotoxicity of 70% or more and less than 90%)
- Herbicidal activity DA: Digitaria adscendens (Digitaria adscendens [11]): 3 (herbicidal effect of not less than 50% and less than 70%, or phytotoxicity of 50% or more and less than 70%)
- Herbicidal activity SM: Stellaria media (Stellaria media [12]): 4 (herbicidal effect of not less than 70% and less than 90%, or phytotoxicity of 70% or more and less than 90%)
- Herbicidal activity (phytotoxicity) OS (Rice (Oryza sativa)): 0 (herbicidal effect of not less than 0% and less than 10%, or phytotoxicity of 0% or more and less than 10%)
- Herbicidal activity AM (Ammannia multiflora): 4 (herbicidal effect of not less than 70% and less than 90%, or phytotoxicity of 70% or more and less than 90%)
- Herbicidal activity SJ (Scirpus juncoides): 3 (herbicidal effect of not less than 50% and less than 70%, or phytotoxicity of 50% or more and less than 70%)
- Herbicidal activity MV (Monochoria vaginalis): 4 (herbicidal effect of not less than 70% and less than 90%, or phytotoxicity of 70% or more and less than 90%)
- Herbicidal activity EC (Echinochloa crusgalli): 4 (herbicidal effect of not less than 70% and less than 90%, or phytotoxicity of 70% or more and less than 90%)
